In data set [1] the test system is Trypanosoma brucei brucei bloodstream form (strain 427). Description: Antitrypanosomal assay (LILIT, Alamar Blue, 72 h) on bloodstream forms. The data set is classed as cell-based. The note with it: for ED50, growth of Trypanosoma brucei (strain 427): bloodstream form, 72 h incubation, Alamar Blue. How it is done:
(§1) Trypanosoma brucei brucei (strain 427) bloodstream forms were cultured in HMI-9 medium containing 10% heat-inactivated. The mammalian fibroblast cell line MRC-5 was grown in DMEM (Gibco) supplemented with 10% heat-inactivated FBS and extra glutamine. Cells were grown at 37 °C in humidified incubators in an atmosphere of 5% CO2 [13].
(§2) The assay performed, the long incubation low inoculation test (LITIT), was previously described by Räz et al., 1997 [14] with minor modifications by Baltz et al., 1985 [15]. To evaluate the selectivity of the in vitro antitrypanosomal activity, in vitro cytotoxicity tests were also performed. The same general method was used in order to facilitate the comparison.
(§3) The compounds were initially dissolved in DMSO at a concentration of 20 mg/ml and diluted with the medium. Series of dilution were done in 96-well plates; each dilution was tested in duplicate. Cells in suspension were thereafter added to each well at a density such as, after 72 h of incubation, in control wells the culture reached the end of logarithmic growth phase (T. brucei), or adhesive cells have formed a confluent monocellular film (mammal cells MRC-5). The highest concentration of DMSO was 0.5%. After 72 h of incubation, Alamar Blue, a marker of cell viability, was added in each well and fluorescence was quantified after a total incubation time of 76 h at an excitation wavelength of 530 nm and at an emission wavelength of 590 nm. ED50 values were calculated by linear interpolation. Assays with commercial drugs were also carried out in order to have reference values. All results represent average values obtained in at least three independent experiments, each experiment comprising a duplicate set of tests.

The subject of data set [2] is MRC-5 mammalian cells (fibroblasts). The experiment in a line: Cytotoxicity assay (Alamar Blue, 72 h) on mammalian fibroblasts. The data set is classed as cell-based. Particulars: 72 h incubation. How it is done:
as §1, §2, §3

The target of the next data set is PGI of T. brucei (Trypanosoma brucei brucei, UniProt P13377). The experiment in a line: Enzymatic inhibition of glycolytic enzyme PGI (T. brucei). The data set is classed as biochemical. The note with it: for Ki’ PGI of T. brucei: binding to enzyme-substrate (F6P/PGI) complex.
A further data set has as its target GAPDH of T. brucei (Trypanosoma brucei brucei, UniProt P22512). The experiment in a line: Enzymatic inhibition of GAPDH (T. brucei). The data set is classed as biochemical.
In data set [3] the target is PyK of Leishmania mexicana (Leishmania mexicana, UniProt Q27686). The experiment in a line: Enzymatic inhibition of PyK (L. mexicana). The data set is classed as biochemical.
In data set [4] the target is rabbit muscle pyruvate kinase (PyK) (Oryctolagus cuniculus, UniProt P11974). Description: Enzymatic inhibition of PyK (rabbit muscle). The data set is classed as biochemical.
For another data set, the target named is T1, PGI Rabbit muscle (Oryctolagus cuniculus, UniProt Q9N1E2).
T1 construct: Rabbit muscle; from tissue; host or cells: rabbit muscle
The experiment in a line: Enzymatic inhibition of PGI (rabbit muscle). Particulars: n.i. = no inhibition observed at 50 μM. The data set is classed as biochemical. The source says: Tab. 3. Enzymatic inhibition (IC50, μM) | column: PGI / Rabbit muscle

For a further data set, the target named is T2, GAPDH Rabbit muscle (Oryctolagus cuniculus, UniProt P46406).
T2 construct: Rabbit muscle; from tissue; host or cells: rabbit muscle
Description: Enzymatic inhibition of GAPDH (rabbit muscle). Particulars: n.i. = no inhibition observed at 50 μM. The data set is classed as biochemical. From the text:
Tab. 3. Enzymatic inhibition (IC50, μM) | column: GAPDH / Rabbit muscle

Data set [5] relates to Trypanosoma brucei brucei bloodstream form (strain 427). The arrangement: method as in PMID 17637068. The note with it: cited from earlier work.
Data set [6] deals with MRC-5 mammalian cells (fibroblasts). The arrangement: method as in PMID 17637068. Particulars: cited from earlier work.
Where [7] appears, read: n.i. = no inhibition observed at 50 μM.

Chain of PyK of Leishmania mexicana (Q27686 whole entry): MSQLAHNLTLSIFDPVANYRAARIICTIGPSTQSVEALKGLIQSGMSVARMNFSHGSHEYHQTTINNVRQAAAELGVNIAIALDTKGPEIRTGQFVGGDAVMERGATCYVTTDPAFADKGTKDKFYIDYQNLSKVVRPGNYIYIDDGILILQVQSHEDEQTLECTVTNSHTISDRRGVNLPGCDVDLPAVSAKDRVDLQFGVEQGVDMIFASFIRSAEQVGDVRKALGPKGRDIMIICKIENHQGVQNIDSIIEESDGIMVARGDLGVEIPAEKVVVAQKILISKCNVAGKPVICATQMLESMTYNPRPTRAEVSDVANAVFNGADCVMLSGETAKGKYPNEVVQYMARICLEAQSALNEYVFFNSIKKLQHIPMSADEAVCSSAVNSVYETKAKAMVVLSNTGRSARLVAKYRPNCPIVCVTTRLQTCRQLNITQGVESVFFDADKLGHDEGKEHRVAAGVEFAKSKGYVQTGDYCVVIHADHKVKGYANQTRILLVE
Chain of rabbit muscle pyruvate kinase (PyK) (P11974 whole entry): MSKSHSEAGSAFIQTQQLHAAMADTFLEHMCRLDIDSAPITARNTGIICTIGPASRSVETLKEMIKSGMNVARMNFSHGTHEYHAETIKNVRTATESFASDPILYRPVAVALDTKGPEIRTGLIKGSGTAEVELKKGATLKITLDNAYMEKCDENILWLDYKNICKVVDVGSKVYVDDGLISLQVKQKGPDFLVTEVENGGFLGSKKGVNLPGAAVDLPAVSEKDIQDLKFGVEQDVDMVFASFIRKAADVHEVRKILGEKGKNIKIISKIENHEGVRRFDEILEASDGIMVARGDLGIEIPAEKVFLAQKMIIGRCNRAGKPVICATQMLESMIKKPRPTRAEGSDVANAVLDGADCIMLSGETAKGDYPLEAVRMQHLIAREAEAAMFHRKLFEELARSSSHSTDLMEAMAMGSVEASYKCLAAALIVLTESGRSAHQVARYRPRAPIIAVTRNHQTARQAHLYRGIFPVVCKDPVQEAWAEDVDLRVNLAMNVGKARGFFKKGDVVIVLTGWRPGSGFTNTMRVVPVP
Chain of PGI of T. brucei (P13377 whole entry): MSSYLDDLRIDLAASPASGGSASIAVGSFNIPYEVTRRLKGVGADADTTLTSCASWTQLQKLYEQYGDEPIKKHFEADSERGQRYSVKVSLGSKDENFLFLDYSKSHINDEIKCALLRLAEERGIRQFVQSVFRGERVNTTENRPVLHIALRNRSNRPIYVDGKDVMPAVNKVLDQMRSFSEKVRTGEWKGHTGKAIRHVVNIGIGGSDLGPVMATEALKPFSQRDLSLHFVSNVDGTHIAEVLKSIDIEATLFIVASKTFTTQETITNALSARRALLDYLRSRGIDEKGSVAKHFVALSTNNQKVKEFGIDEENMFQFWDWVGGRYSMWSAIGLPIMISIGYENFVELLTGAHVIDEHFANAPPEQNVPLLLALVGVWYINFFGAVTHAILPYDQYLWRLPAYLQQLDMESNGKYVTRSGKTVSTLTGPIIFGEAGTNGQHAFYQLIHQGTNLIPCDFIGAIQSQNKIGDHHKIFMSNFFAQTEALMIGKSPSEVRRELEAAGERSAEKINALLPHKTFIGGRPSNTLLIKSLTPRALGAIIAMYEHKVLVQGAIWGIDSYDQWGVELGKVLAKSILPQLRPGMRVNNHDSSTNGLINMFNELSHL
Chain of GAPDH of T. brucei (P22512 whole entry): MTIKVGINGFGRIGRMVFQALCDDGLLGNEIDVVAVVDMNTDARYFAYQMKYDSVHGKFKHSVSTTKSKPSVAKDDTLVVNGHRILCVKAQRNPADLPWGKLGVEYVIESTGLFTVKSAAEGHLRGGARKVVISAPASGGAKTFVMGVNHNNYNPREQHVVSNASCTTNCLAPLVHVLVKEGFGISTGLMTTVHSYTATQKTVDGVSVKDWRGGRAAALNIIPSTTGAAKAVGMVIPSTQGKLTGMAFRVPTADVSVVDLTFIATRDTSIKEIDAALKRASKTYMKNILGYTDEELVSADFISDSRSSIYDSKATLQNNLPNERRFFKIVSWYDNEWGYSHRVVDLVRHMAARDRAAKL
T2 sequence (P46406 whole entry): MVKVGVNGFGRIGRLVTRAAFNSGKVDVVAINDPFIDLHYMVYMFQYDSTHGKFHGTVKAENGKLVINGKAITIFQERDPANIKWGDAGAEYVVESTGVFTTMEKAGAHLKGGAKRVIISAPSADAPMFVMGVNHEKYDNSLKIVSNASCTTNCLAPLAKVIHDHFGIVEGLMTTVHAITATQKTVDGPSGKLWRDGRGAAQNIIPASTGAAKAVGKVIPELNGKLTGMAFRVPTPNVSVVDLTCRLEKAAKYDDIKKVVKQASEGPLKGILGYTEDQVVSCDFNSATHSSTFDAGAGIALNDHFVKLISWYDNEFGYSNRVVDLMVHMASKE

As for `C=C(C)[C@@H](CC)CC(O)[C@@H](C)[C@H]1CC[C@H]2[C@@H]3CC=C4C[C@@H](O)CC[C@]4(C)[C@H]3CC[C@]12C` (stereo partly drawn) [Compound 1, (3β,24S)-Stigmasta-5,25-diene-3,22-diol], the melting point was in the range of 166 to 168 °C. Further, the “ED50, growth of Trypanosoma brucei (strain 427)” value in data set [1] amounted to 1.56 µM. Besides, the “fold more potent than compound 2 (ED50, T. brucei brucei growth)” value in data set [1] (ratio of ED50 values) is listed as 86 fold. Further, the “ED50, Mammalian cells (MRC-5 fibroblasts)” value (“ED50, Mammalian cells” below) in data set [2] was determined as 1.12 µM. This compound also yielded a half-inhibitory concentration (IC50) against PGI of T. brucei of 30 ± 10 µM. At PGI of T. brucei (kinetic studies), the “affinity for F6P/PGI complex relative to affinity of natural substrate (F6P) for PGI” value was 76 fold, the “type of inhibition of PGI of T. brucei” value is “uncompetitive inhibitor” and the “Ki’ PGI of T. brucei” value stood at 3 ± 1 µM. Moreover, the IC50 against GAPDH of T. brucei was 30 ± 10 µM. Further, in data set [3], the IC50 was found to be 30 ± 5 µM and the affinity corresponds to a Ki of 24 ± 5 µM. Also, in data set [3] (kinetic studies), the “Ki’ PyK of Leishmania mexicana” value stood at 65 ± 10 µM and the “type of inhibition of PyK of Leishmania mexicana” value was “mixed inhibitor”. In data set [4] (kinetic studies), the “Ki’ PyK of rabbit muscle” value came out at 26 ± 3 µM and the “type of inhibition of PyK of rabbit muscle” value was “uncompetitive inhibitor”.
With `C=C(C)[C@@H](CC)CC[C@@H](C)[C@H]1CC[C@H]2[C@@H]3CC=C4C[C@@H](O)CC[C@]4(C)[C@H]3CC[C@]12C` [Compound 2, (3β,24S)-Stigmasta-5,25-dien-3-ol], the “ED50, growth of Trypanosoma brucei (strain 427)” value in data set [1] was 134.34 µM. For the same compound, the “ED50, Mammalian cells” value in data set [2] is “no effect”. The “ED50, Mammalian cells” value in data set [2] (listed as compound 2) is given as “non toxic on mammalian cells”. Moreover, on PGI of T. brucei, the half-inhibitory concentration (IC50) worked out at 45 ± 10 µM and the affinity corresponds to a Ki of 10 ± 2 µM. Moreover, at PGI of T. brucei (kinetic studies), the “type of inhibition of PGI of T. brucei” value is listed as “mixed inhibitor” and the “Ki’ PGI of T. brucei” value came out at 68 ± 5 µM. The “IC50 PGI Rabbit muscle” value against PGI Rabbit muscle is listed as “n.i”. For the same compound, on GAPDH of T. brucei (setting [7]), the “IC50 GAPDH T. brucei” value is recorded as “n.i”. The “IC50 GAPDH Rabbit muscle” value against GAPDH Rabbit muscle was “n.i”. Further, the “IC50 PyK L. mexicana” value in data set [3] (setting [7]) is on record as “n.i”. The “IC50 PyK Rabbit muscle” value in [4] (setting [7]) is recorded as “n.i”. Moreover, in data set [5], the “antitrypanosomal activity (known)” value is “weak antitrypanosomal activity”. For the same compound, in [6], the “toxicity to mammalian cells (known)” value is “non toxic to mammalian cells”.

Source of the values: publication PMC3097502, “Antitrypanosomal and Cytotoxic Activities of 22-Hydroxyclerosterol, a New Sterol from Allexis cauliflora (Violaceae)” (Scientia Pharmaceutica, 2011).
